Experiments:
[1] = test system: human red blood cells (RBCs); assay: In vitro hemolysis assay; type: cell-based; conditions: 30 min, 37 °C, at IC50 values for HepG2
Protocol: The hematologic toxicity of the most cytotoxic TZD–TSCs, compounds 2 and 3, was tested via in vitro hemolysis assay, following a 30 min treatment of human RBCs at 37 °C with these compounds.
Human red blood cell (RBC) concentrate was obtained from the Regional Blood Donation and Transfusion Centre (Lublin, Poland). The RBC concentrate (5 mL) was washed three times with sterile PBS and centrifuged at 500 g for 3 minutes. The obtained pellet was suspended in sterile PBS to obtain a 2% suspension, which was subsequently mixed with 1 mL of solution of TZD–TSCs 2 and 3. […] The mixtures were incubated at 37 °C for 30 min and, subsequently, centrifuged at 1400× g for 10 min. The amount of free hemoglobin in the supernatants was measured spectrophotometrically at 405 nm. Negative and positive controls were performed by incubating RBCs with sterile PBS and 0.1% Triton-X, respectively. Each experiment was run in triplicate.

bacteria = test system: bacteria; set-up: method as in PMID 29701728; conditions: in vitro antibacterial potency; cited from earlier work
HT29 cells = assay: Nitric oxide measurement (Griess), HT29; type: cell-based, human; conditions: HT29, 200 μg/mL
Protocol: Nitrate, i.e., a stable end product of NO, was measured in culture supernatants with a spectrophotometric method based on the Griess reaction. Culture supernatants were collected from the cell cultures treated with specific concentrations of the tested compounds (25, 75, 150, and 200 μg/mL, respectively). Briefly, 100 μL of the culture supernatant was placed in 96-well flat-bottomed plates in triplicate and incubated with 100 μL of Griess reagent (1% sulfanilamide/0.1% N-(1-naphthyl)ethylenediamine dihydrochloride) in 3% H3PO4 at room temperature for 10 min. The optical density was measured at 550 nm using a microplate reader. A standard curve was prepared using 0.5–25 μM sodium nitrite (NaNO2) for calibration.

T98G cells = assay: ECM cell invasion assay (colorimetric), T98G; type: cell-based, human
Protocol: The anti-invasion effects of 2 and 3 were examined using a Cell Invasion Assay Kit (ECM550, CHEMICON—Millipore Co., Billerica, MA, USA). In brief, 10^5 tumor cells were suspended in medium with 10% FBS and plated into the upper chamber, containing 8 μm pore size polycarbonate membrane precoated with ECMatrix, followed by filling the lower chamber with the same medium, enriched with the investigated compounds. Afterwards, cells were incubated for 24 h and allowed to invade towards the bottom chamber (with medium + 10% FBS). The non-invading cells on the upper membrane surface were removed with a cotton swab and the invasive cells, i.e., cells attached to the lower membrane surface, were stained with 0.1% crystal violet. For colorimetric quantitation, the stained cells were dissolved in 10% acetic acid (200 μL/well) and the obtained solution was transferred to a 96-well plate for spectrometric measurements, at a wavelength of 560 nm.

CCD 841 CoTr cells = assay: MTT assay, normal colon epithelial cells; type: cell-based; conditions: Homo sapiens, CCD 841 CoTr (noncancerous), 24 h treatment, mean ± SD
Protocol: The effects of TZD–TSCs 2–5 on the cellular viability of a panel of cell lines were investigated through an 3-(4,5-dimethylthiazol-2-yl)-2,5-diphenyl-2H-tetrazolium bromide (MTT) assay, following a 24 h treatment with the compounds. The panel consisted of three solid tumor cells: T98G (glioblastoma multiforme), HepG2 (hepatocellular carcinoma, epithelial), and HT29 (colon adenocarcinoma, epithelial), as well as noncancerous cells CCD 841 CoTr (normal colon, epithelial).
Primary single dose screenings of TZD–TSCs 2–5 were performed at a concentration of 200 μg/mL, and those that elicited a greater than 80% inhibition of cell proliferation were analyzed at several concentrations, to find their half-maximal inhibitory concentration (IC50). The IC50 values, reported as the mean ± SD in Table 2, indicate the concentration of the tested compound that inhibits the growth/viability of the cancer cell population by 50%. In this specific case of an MTT assay, which measures the activity of mitochondrial dehydrogenases (as an indicator of cell viability), the IC50 values stand for the concentration that inhibits the metabolic activity of cells by 50%.
Human colon adenocarcinoma cells, HT29 (ATCC no. HTB-38), derived from a grade I tumor, were cultured in roswell park memorial institute Medium (RPMI) 1640 medium, supplemented with 10% fetal calf serum (FCS) (GibcoTM, Paisley, UK) and antibiotics (100 U/mL penicillin and 100 μg/mL streptomycin) (Sigma, St. Louis, MO), at 37 °C in a humidified atmosphere with 5% CO2. Human normal colon epithelial cells, CCD 841 CoTr (ATCC no. CRL-1807), were cultured in RPMI 1640 + dulbecco’s modified eagle medium (DMEM) (1:1) medium (Sigma, St. Louis, MO), supplemented with 10% FCS and antibiotics, at 34 °C in a 5% CO2/95% air atmosphere. Human glioblastoma T98G cells were cultured in Dulbecco’s Modified Eagle’s Medium (DMEM) (Sigma Aldrich, St. Louis, MO, USA), supplemented with 10% fetal bovine serum (FBS), penicillin (100 U/mL), and streptomycin (100 μg/mL). Human hepatocellular carcinoma cells, HepG2, were maintained in Eagle’s Minimum Essential Medium, supplemented with 10% FBS, penicillin (100 U/mL), and streptomycin (100 μg/mL).
After 24 h of incubation of the cells with the tested compounds in 100 μL of culture medium, MTT solution (5 mg/mL, 25 μL/well) was added and incubated for an additional 3 h. The purple crystals of formazan which formed in the medium were solubilized overnight in 10% sodium dodecyl sulphate (SDS) in a 0.01 M HCl mixture. The product was quantified spectrophotometrically by measuring its absorbance at 570 nm using an Emax Microplate Reader (Molecular Devices Corporation, Menlo Park, CA, USA).

| Compound | Hemolytic activity (free hemoglobin released) [1] | Minimal inhibitory concentrations (MICs) (bacteria) [µM] | NO production, [NO2^−] (HT29 cells) [µM] | Invasion through artificial ECM model (T98G cells; 1/10 IC50 to IC50, 24 h) | Invasion through artificial ECM model (T98G cells; 1/10 of the IC50 doses, 24 h) | IC50 (CCD 841 CoTr cells) [µM] |
| --- | --- | --- | --- | --- | --- | --- |
| O=C(C=C1SC(=O)NC1=O)Oc1ccccc1C=NNC(=S)Nc1ccccc1Cl [TZD–TSC 2] | no specific hemolytic activity | 8.48 to 16.94 | 0.272 | exhibited inhibitory effects | statistically significantly inhibited | 44.6 ± 2.91 |
| O=C(C=C1SC(=O)NC1=O)Oc1ccccc1C=NNC(=S)Nc1cccc(Cl)c1 [TZD–TSC 3] | no specific hemolytic activity | 8.48 to 16.94 | 0.201 | exhibited inhibitory effects | statistically significantly inhibited | 100 ± 4.82 |

Source: PMC10743653, “Combined In Silico and In Vitro Analyses to Assess the Anticancer Potential of Thiazolidinedione–Thiosemicarbazone Hybrid Molecules” (International Journal of Molecular Sciences, 2023)
